According to patent US8846710B2, “Method of preferentially inducing the biosynthesis of interferon” (3M Innovative Properties Company, priority 2005, dated 2014):

system: interferon (α) (IFN-α); assay: Cytokine induction in human cells: IFN-α secreted by PBMC into culture media (ELISA); assay type: cell-based; settings: Table 10; human PBMC; lowest tested concentration inducing IFN-α over usually 20 pg/mL; median where more than one experiment; read-out: Minimum Effective Concentration (μM) IFN
Text: (§1) Cytokine Induction in Human Cells
(§2) An in vitro human blood cell system is used to assess cytokine induction. Activity is based on the measurement of interferon (α) and tumor necrosis factor (α) (IFN-α and TNF-α, respectively) secreted into culture media as described by Testerman et. al. in “Cytokine Induction by the Immunomodulators Imiquimod and S-27609”, Journal of Leukocyte Biology, 58, 365-372 (September, 1995).
(§3) Blood Cell Preparation for Culture
(§4) Whole blood from healthy human donors is collected by venipuncture into vacutainer tubes or syringes containing EDTA. Peripheral blood mononuclear cells (PBMC) are separated from whole blood by density gradient centrifugation using HISTOPAQUE-1077 (Sigma, St. Louis, Mo.) or Ficoll-Paque Plus (Amersham Biosciences Piscataway, N.J.). Blood is diluted 1:1 with Dulbecco's Phosphate Buffered Saline (DPBS) or Hank's Balanced Salts Solution (HBSS). Alternately, whole blood is placed in Accuspin (Sigma) or LeucoSep (Oreiner Bio-One, Inc., Longwood, Fla.) centrifuge frit tubes containing density gradient medium. The PBMC layer is collected and washed twice with DPBS or HBSS and re-suspended at 4×10^6 cells/mL in RPMI complete. The PBMC suspension is added to 96 well flat bottom sterile tissue culture plates containing an equal volume of RPMI complete media containing test compound.
(§5) The compounds are solubilized in dimethyl sulfoxide (DMSO). The DMSO concentration should not exceed a final concentration of 1% for addition to the culture wells. The compounds are generally tested at concentrations ranging from 30-0.014 μM. Controls include cell samples with media only, cell samples with DMSO only (no compound), and cell samples with reference compound.
(§6) The solution of test compound is added at 60 μM to the first well containing RPMI complete and serial 3 fold dilutions are made in the wells. The PBMC suspension is then added to the wells in an equal volume, bringing the test compound concentrations to the desired range (usually 30-0.014 μM). The final concentration of PBMC suspension is 2×10^6 cells/mL. The plates are covered with sterile plastic lids, mixed gently and then incubated for 18 to 24 hours at 37° C. in a 5% carbon dioxide atmosphere.
(§7) Following incubation the plates are centrifuged for 10 minutes at 1000 rpm (approximately 200×g) at 4° C. The cell-free culture supernatant is removed and transferred to sterile polypropylene tubes. Samples are maintained at −30 to −70° C. until analysis. The samples are analyzed for IFN-α by ELISA and for TNF-α by IGEN/BioVeris Assay.
(§8) Interferon (α) and Tumor Necrosis Factor (α) Analysis
IFN-α concentration is determined with a human multi-subtype calorimetric sandwich ELISA (Catalog Number 41105) from PBL Biomedical Laboratories, Piscataway, N.J. Results are expressed in pg/mL.
(§9) In total, the data output of the assay consists of concentration values of TNF-α and IFN-α (y-axis) as a function of compound concentration (x-axis).
Analysis of the data has two steps. First, the greater of the mean DMSO (DMSO control wells) or the experimental background (usually 20 pg/mL for IFN-α and 40 pg/mL for TNF-α) is subtracted from each reading. If any negative values result from background subtraction, the reading is reported as “*”, and is noted as not reliably detectable. In subsequent calculations and statistics, “*”, is treated as a zero. Second, all background subtracted values are multiplied by a single adjustment ratio to decrease experiment to experiment variability. The adjustment ratio is the area of the reference compound in the new experiment divided by the expected area of the reference compound based on the past 61 experiments (unadjusted readings). […] The reference compound used is 2-[4-amino-2-ethoxymethyl-6,7,8,9-tetrahydro-α,α-dimethyl-1H-imidazo[4,5-c]quinolin-1-yl]ethanol hydrate (U.S. Pat. No. 5,352,784; Example 91) and the expected area is the sum of the median dose values from the past 61 experiments. […]

SMILES	minimal effective concentration [µM]
COCCc1nc2c(N)nc3cc(-c4cccnc4)ccc3c2n1CC(C)C [Analog 25]	0.014
CCOCc1nc2c(N)nc3cc(-c4cccnc4)ccc3c2n1CC(C)C [Analog 26]	0.014
COCCc1nc2c(N)nc3cc(-c4cncc(CO)c4)ccc3c2n1CC(C)C [Analog 27]	0.014
CCOCc1nc2c(N)nc3cc(-c4cncc(CO)c4)ccc3c2n1CC(C)C [Analog 28]	0.04
CCCNC(=O)NCCCCn1c(COCC)nc2c(N)nc3cc(-c4cccnc4)ccc3c21 [Analog 29]	0.04
CCCNC(=O)NCCCCn1c(CCC)nc2c(N)nc3cc(-c4cccnc4)ccc3c21 [Analog 30]	0.37
CCCC(=O)NCCCCn1c(COCC)nc2c(N)nc3cc(-c4cccnc4)ccc3c21 [Analog 31]	0.12
CCCC(=O)NCCCCn1c(CCC)nc2c(N)nc3cc(-c4cccnc4)ccc3c21 [Analog 32]	0.12
CCOCc1nc2c(N)nc3cc(-c4cccnc4)ccc3c2n1CCCCNC(=O)NC1CCCC1 [Analog 33]	0.014
CCCc1nc2c(N)nc3cc(-c4cccnc4)ccc3c2n1CCCCNC(=O)NC1CCCC1 [Analog 34]	0.014
CCOCc1nc2c(N)nc3cc(-c4cccnc4)ccc3c2n1CCCCNC(=O)C1CCCC1 [Analog 35]	0.04
CCCc1nc2c(N)nc3cc(-c4cccnc4)ccc3c2n1CCCCNC(=O)C1CCCC1 [Analog 36]	0.12

same assay, conditions: Table 10; maximal response in dose response curve; * = below experimental background level; median

SMILES	Maximal Response (pg/mL) IFN [pg/mL]
COCCc1nc2c(N)nc3cc(-c4cccnc4)ccc3c2n1CC(C)C [Analog 25]	1199
CCOCc1nc2c(N)nc3cc(-c4cccnc4)ccc3c2n1CC(C)C [Analog 26]	591
COCCc1nc2c(N)nc3cc(-c4cncc(CO)c4)ccc3c2n1CC(C)C [Analog 27]	1332
CCOCc1nc2c(N)nc3cc(-c4cncc(CO)c4)ccc3c2n1CC(C)C [Analog 28]	1263
CCCNC(=O)NCCCCn1c(COCC)nc2c(N)nc3cc(-c4cccnc4)ccc3c21 [Analog 29]	936
CCCNC(=O)NCCCCn1c(CCC)nc2c(N)nc3cc(-c4cccnc4)ccc3c21 [Analog 30]	531
CCCC(=O)NCCCCn1c(COCC)nc2c(N)nc3cc(-c4cccnc4)ccc3c21 [Analog 31]	965
CCCC(=O)NCCCCn1c(CCC)nc2c(N)nc3cc(-c4cccnc4)ccc3c21 [Analog 32]	862
CCOCc1nc2c(N)nc3cc(-c4cccnc4)ccc3c2n1CCCCNC(=O)NC1CCCC1 [Analog 33]	925
CCCc1nc2c(N)nc3cc(-c4cccnc4)ccc3c2n1CCCCNC(=O)NC1CCCC1 [Analog 34]	649
CCOCc1nc2c(N)nc3cc(-c4cccnc4)ccc3c2n1CCCCNC(=O)C1CCCC1 [Analog 35]	969
CCCc1nc2c(N)nc3cc(-c4cccnc4)ccc3c2n1CCCCNC(=O)C1CCCC1 [Analog 36]	521

system: tumor necrosis factor (α) (TNF-α); assay: Cytokine induction in human cells: TNF-α secreted by PBMC into culture media (ORIGEN M-Series immunoassay); assay type: cell-based; settings: Table 10; human PBMC; lowest tested concentration inducing TNF-α over usually 40 pg/mL; median where more than one experiment; read-out: Minimum Effective Concentration (μM) TNF
Text: as §1, §2, §3, §4, §5, §6, §7, §8
The TNF-α concentration is determined by ORIGEN M-Series Immunoassay and read on an IGEN M-8 analyzer from BioVeris Corporation, formerly known as IGEN International, Gaithersburg, Md. The immunoassay uses a human TNF-α capture and detection antibody pair (Catalog Numbers AHC3419 and AHC3712) from Biosource International, Camarillo, Calif. Results are expressed in pg/mL.
as §9
Analysis of the data has two steps. First, the greater of the mean DMSO (DMSO control wells) or the experimental background (usually 20 pg/mL for IFN-α and 40 pg/mL for TNF-α) is subtracted from each reading. If any negative values result from background subtraction, the reading is reported as “*”, and is noted as not reliably detectable. In subsequent calculations and statistics, “*”, is treated as a zero. Second, all background subtracted values are multiplied by a single adjustment ratio to decrease experiment to experiment variability. The adjustment ratio is the area of the reference compound in the new experiment divided by the expected area of the reference compound based on the past 61 experiments (unadjusted readings). […]

SMILES	minimal effective concentration [µM]
COCCc1nc2c(N)nc3cc(-c4cccnc4)ccc3c2n1CC(C)C [Analog 25]	0.04
CCOCc1nc2c(N)nc3cc(-c4cccnc4)ccc3c2n1CC(C)C [Analog 26]	0.12
COCCc1nc2c(N)nc3cc(-c4cncc(CO)c4)ccc3c2n1CC(C)C [Analog 27]	0.04
CCOCc1nc2c(N)nc3cc(-c4cncc(CO)c4)ccc3c2n1CC(C)C [Analog 28]	0.37
CCCNC(=O)NCCCCn1c(COCC)nc2c(N)nc3cc(-c4cccnc4)ccc3c21 [Analog 29]	1.11
CCCNC(=O)NCCCCn1c(CCC)nc2c(N)nc3cc(-c4cccnc4)ccc3c21 [Analog 30]	0.37
CCCC(=O)NCCCCn1c(COCC)nc2c(N)nc3cc(-c4cccnc4)ccc3c21 [Analog 31]	1.11
CCCC(=O)NCCCCn1c(CCC)nc2c(N)nc3cc(-c4cccnc4)ccc3c21 [Analog 32]	0.37
CCOCc1nc2c(N)nc3cc(-c4cccnc4)ccc3c2n1CCCCNC(=O)NC1CCCC1 [Analog 33]	1.11
CCCc1nc2c(N)nc3cc(-c4cccnc4)ccc3c2n1CCCCNC(=O)NC1CCCC1 [Analog 34]	0.37
CCOCc1nc2c(N)nc3cc(-c4cccnc4)ccc3c2n1CCCCNC(=O)C1CCCC1 [Analog 35]	0.37
CCCc1nc2c(N)nc3cc(-c4cccnc4)ccc3c2n1CCCCNC(=O)C1CCCC1 [Analog 36]	0.37

same assay, conditions: Table 10; maximal response in dose response curve; * = below experimental background level; median

SMILES	Maximal Response (pg/mL) TNF [pg/mL]
COCCc1nc2c(N)nc3cc(-c4cccnc4)ccc3c2n1CC(C)C [Analog 25]	3151
CCOCc1nc2c(N)nc3cc(-c4cccnc4)ccc3c2n1CC(C)C [Analog 26]	647
COCCc1nc2c(N)nc3cc(-c4cncc(CO)c4)ccc3c2n1CC(C)C [Analog 27]	9563
CCOCc1nc2c(N)nc3cc(-c4cncc(CO)c4)ccc3c2n1CC(C)C [Analog 28]	3885
CCCNC(=O)NCCCCn1c(COCC)nc2c(N)nc3cc(-c4cccnc4)ccc3c21 [Analog 29]	1059
CCCNC(=O)NCCCCn1c(CCC)nc2c(N)nc3cc(-c4cccnc4)ccc3c21 [Analog 30]	5284
CCCC(=O)NCCCCn1c(COCC)nc2c(N)nc3cc(-c4cccnc4)ccc3c21 [Analog 31]	991
CCCC(=O)NCCCCn1c(CCC)nc2c(N)nc3cc(-c4cccnc4)ccc3c21 [Analog 32]	1647
CCOCc1nc2c(N)nc3cc(-c4cccnc4)ccc3c2n1CCCCNC(=O)NC1CCCC1 [Analog 33]	1618
CCCc1nc2c(N)nc3cc(-c4cccnc4)ccc3c2n1CCCCNC(=O)NC1CCCC1 [Analog 34]	9019
CCOCc1nc2c(N)nc3cc(-c4cccnc4)ccc3c2n1CCCCNC(=O)C1CCCC1 [Analog 35]	1366
CCCc1nc2c(N)nc3cc(-c4cccnc4)ccc3c2n1CCCCNC(=O)C1CCCC1 [Analog 36]	2222
